Columns and labels:
[1] = Physiogenomic SNP association screen: single-SNP coefficients for metabolic syndrome outcomes in patients on psychotropic drugs
Description: Various SNPs associated with, for example, the observation of various parameters of metabolic syndromes in patients on psychotropic drugs were screened. The endpoints analyzed were the blood levels of LDL, HDL, and glucose; blood pressure; body mass index; waist circumference; and metabolic syndromes index. The physiogenomic model was developed using the following procedure: 1) Establish a covariate model using only the demographic and clinical variables, 2) Screen for associated genetic markers by testing each SNP against the unexplained residual of the covariate model, and 3) Establish a revised model incorporating the significant associations from the SNP screen. All models are simple linear regression models, but other well-known statistical methods are contemplated to be useful.
In the SNP screen (step 2), the p-values for each SNP were obtained by adding the SNP to the covariate model and comparing the resulting model improvement with up to 10,000 simulated model improvements using the same data set, but with the genotype data randomly permuted to remove any true association. This method produces a p-value that is a direct, unbiased, and model-free estimate of the probability of finding a model as good as the one tested when the null hypothesis of no association is true. All SNPs with a screening p-value of better than 0.003 were selected to be included in the physiogenomic model (step 3).
Data Analysis. Covariates were analyzed using multiple linear regression and the stepwise procedure. An extended linear model was constructed including the significant covariate and the SNP genotype. SNP genotype was coded quantitatively as a numerical variable indicating the number of minor alleles: 0 for major homozygotes, 1 for heterozygotes, and 2 for minor homozygotes. The F-statistic p-value for the SNP variable was used to evaluate the significance of association. The validity of the p-values were tested by performance of an independent calculation of the p-values using permutation testing. To account for the multiple testing of multiple SNPs, adjusted p-values were calculated using Benjamini and Hochbergs false discovery rate (FDR) procedure [Reinere A, Yekutiele D, Benjamini Y: Identifying differentially expressed genes using false discovery rate controlling procedures. Bioinformatics 19:368-375 (2003); Benjamini Y, Hochberg Y: Controlling the false discovery rate: a practical and powerful approach to multiple testing. Journal of the Royal Statistical Society, Series B 57:289-300 (1995); Benjamini Y, Hochberg Y: On the adaptive control of the false discovery rate in multiple testing with independent statistics. Journal of Educational and Behavioral Statistics 25:60-83 (2000)]. In addition, the power for detecting an association based on the Bonferroni multiple comparison adjustment was evaluated. For each SNP, the effect size in standard deviations that was necessary for detection of an association at a power of 80% (20% false negative rate) was calculated using the formula: […]

[2] = Outcome variables of patients on each psychotropic drug broken down by demographic factors (Covariates tables); type: in vivo, human
[3] = Description: b. Model Building. […] A model was developed for the purpose of predicting a given response (Y) to psychotropic drugs. A linear model for subjects in a group of patients subjected to psychotropic drugs was used in which the response of interest can be expressed as follows:
[formula] where Mi are the dummy marker variables indicating the presence of specified genotypes and Dj are demographic and clinical covariates. The model parameters that are to be estimated from the data are R0, αi and βj. […] S-plus provides very good support for algorithms that provide these estimates for the initial linear regression models, as well other generalized linear models that may be used when the error distribution is not normal. For continuous variables, generalized additive models, including cubic splines in order to appropriately assess the form for the dose-response relationship may also be considered [Hastie T, Tibshirani R. Generalized additive models. Stat. Sci. 1: 297-318 (1986); Durrleman S, Simon R. Flexible regression models with cubic splines. Statistics in Medicine 8:551-561 (1989)].
In addition to optimizing the parameters, model refinement is performed. The first phase of the regression analysis will consist of considering a set of simplified models by eliminating each variable in turn and re-optimizing the likelihood function. The ratio between the two maximum likelihoods of the original vs. the simplified model then provides a significance measure for the contribution of each variable to the model.
Each physiotype in this particular embodiment consists of a selection of markers, and intercept value (C), and a coefficient (ci) for each marker. […] The predicted LDL response for a given individual is then given by the formula:
[formula] where C is the intercept, the ci are the coefficients and the gi are the genotypes, coded 0 for the wild type allele homozygote, 1 for the heterozygote, and 2 for the variant allele homozygote.

[4] = cited from earlier work

O=C1CCc2ccc(OCCCCN3CCN(c4cccc(Cl)c4Cl)CC3)cc2N1 [Arapiprazole, arapiprazole]
Coeff. LDL Cholesterol ([1]; SNP rs264 LPL allele AG p 3.00E−03): −26.5842
Coeff. LDL Cholesterol ([1]; SNP rs7412 APOE allele TC p 1.42E−02): −26.3527
Coeff. LDL Cholesterol ([1]; SNP rs140700 SLC6A4 allele AG p 1.76E−02): 34.06
Coeff. LDL Cholesterol ([1]; SNP rs231460 PYY allele TC p 7.02E−03): −22.8702
Coeff. LDL Cholesterol ([1]; SNP rs701492 GAD1 allele TC p 1.25E−04): −41.2222
Coeff. LDL Cholesterol ([1]; SNP rs1057910 CYP2C9 allele AC p 9.03E−04): 25.75
Coeff. LDL Cholesterol ([1]; SNP rs1176744 HTR3B allele TG p 2.77E−02): −14.3889
Coeff. LDL Cholesterol ([1]; SNP rs1805002 CCKBR allele AG p 3.93E−02): −32.875
Coeff. LDL Cholesterol ([1]; SNP rs1871143 GYS2 allele TG p 4.09E−02): −14.1588
Coeff. LDL Cholesterol ([1]; SNP rs2070937 HP allele AG p 3.68E−02): 16.59
Coeff. LDL Cholesterol ([1]; SNP rs2192752 IL1R1 allele AC p 3.35E−02): 19.88
Coeff. LDL Cholesterol ([1]; SNP rs2227852 DRD5 allele AG p 1.36E−02): −28.1852
Coeff. LDL Cholesterol ([1]; SNP rs2229416 ACACA allele AG p 1.41E−02): −29.2143
Coeff. LDL Cholesterol ([1]; SNP rs2306179 GYS2 allele AG p 2.72E−02): −15.1786
Coeff. LDL Cholesterol ([1]; SNP rs3760396 CCL2 allele GC p 4.10E−02): −15.8942
Coeff. LDL Cholesterol ([1]; SNP rs3762611 GABRA4 allele AG p 1.49E−02): −18.7032
Coeff. LDL Cholesterol ([1]; SNP rs3822222 CCKAR allele TC p 8.57E−03): 24.98
Coeff. LDL Cholesterol ([1]; SNP rs4795180 ACACA allele TG p 1.41E−02): −29.2143
Coeff. LDL Cholesterol ([1]; SNP rs5030390 ICAM1 allele AG p 1.30E−02): −27.8333
Coeff. LDL Cholesterol ([1]; SNP rs7816340 ADRA1A allele TC p 4.36E−02): −25.5911
Coeff. LDL Cholesterol ([1]; SNP rs9904270 RARA allele TC p 2.39E−03): −37.1182
Coeff. LDL Cholesterol ([1]; SNP rs10509676 CYP2C19 allele TA p 1.50E−02): −24.25
LDL ([2]; Age 20-30, N 8): 90.5
LDL ([2]; Age 30-40, N 16): 97.19
LDL ([2]; Age 40-50, N 8): 94.25
LDL ([2]; Age 50-60, N 4): 83
LDL ([2]; All, N 36): 93.47
LDL ([2]; Heritage African Am, N 3): 104
LDL ([2]; Heritage Caucasian, N 33): 92.52
LDL ([2]; female, N 10): 87
BM ([2]; human, in vivo): 86.58
Waist ([2]; human, in vivo): 101.34
dBP ([2]; human, in vivo): 75.86
sBP ([2]; human, in vivo): 122.17
LDL ([2]; male, N 26): 95.96
LDL ([2]; patients on the named drug): 93.47
Intercept (C), Blood Glucose Physiotype [3]: Intercept (C) = 0.3665
Intercept (C), Body Mass Physiotype [3]: Intercept (C) = 0.1845
Intercept (C), Diastolic Blood Pressure Physiotype [3]: Intercept (C) = −0.05506
Intercept (C), HDL Cholesterol Physiotype [3]: Intercept (C) = −0.3706
Intercept (C), LDL Cholesterol Physiotype [3]: Intercept (C) = 0.2441
Intercept (C), Log (TG) Physiotype [3]: Intercept (C) = 0.9167
Intercept (C), Systolic Blood Pressure Physiotype [3]: Intercept (C) = −0.1862
Intercept (C), Waist circumference Physiotype [3]: Intercept (C) = −0.888

O=C1Cc2cc(CCN3CCN(c4nsc5ccccc45)CC3)c(Cl)cc2N1 [Ziprasidone, ziprasidone]
Coeff. LDL Cholesterol ([1]; SNP rs40318, gene PIK3R1, allele TC, p 4.80E−02): 22.72
Coeff. LDL Cholesterol ([1]; SNP rs1322783, gene DISC1, allele TC, p 1.26E−02): −27.8566
Coeff. LDL Cholesterol ([1]; SNP rs1614845, gene HRH3, allele TC, p 4.20E−02): −21.1697
Coeff. LDL Cholesterol ([1]; SNP rs1951795, gene HIF1A, allele AC, p 2.81E−02): 17.21
Coeff. LDL Cholesterol ([1]; SNP rs2067477, gene CHRM1, allele AC, p 4.47E−02): −23.7833
Coeff. LDL Cholesterol ([1]; SNP rs2228139, gene IL1R1, allele GC, p 1.74E−02): −42.4134
Coeff. LDL Cholesterol ([1]; SNP rs2269935, gene PFKM, allele AC, p 1.38E−02): −29.0481
Coeff. LDL Cholesterol ([1]; SNP rs2301108, gene HIF1A, allele AG, p 4.60E−03): 27.41
Coeff. LDL Cholesterol ([1]; SNP rs2856929, gene PKM2, allele AG, p 2.55E−02): −21.0303
Coeff. HDL Cholesterol ([1]; SNP rs3757868, gene ACHE, allele AG, p 2.11E−02): 9.221
Coeff. Ratio of Total Cholesterol to HDL Cholesterol ([1]; SNP rs3757868, gene ACHE, allele AG, p 2.47E−02): −0.8869
Coeff. LDL Cholesterol ([1]; SNP rs3816873, gene MTP, allele TC, p 2.73E−02): −19.1531
Coeff. LDL Cholesterol ([1]; SNP rs6700734, gene TNFSF6, allele AG, p 1.15E−02): 21.53
Coeff. LDL Cholesterol ([1]; SNP rs6967107, gene WBSCR14, allele AC, p 5.00E−02): −28.3763
Coeff. LDL Cholesterol ([1]; SNP rs6976017, gene CYP3A5, allele AG, p 4.34E−03): −45.408
Coeff. LDL Cholesterol ([1]; SNP rs7816340, gene ADRA1A, allele TC, p 4.22E−02): 24.97
Coeff. LDL Cholesterol ([1]; SNP rs10082776, gene RARG, allele AG, p 1.92E−02): −24.15
LDL ([2]; Age 20-30): 79.20
LDL ([2]; Age 30-40): 98.42
LDL ([2]; Age 40-50): 75.18
LDL ([2]; Age 50-60): 135.00
LDL ([2]; Age 60-70): 154.00
LDL ([2]; Age <20): 89.50
LDL ([2]; All): 88.32
LDL ([2]; Gender female): 98.11
LDL ([2]; Gender male): 79.05
LDL ([2]; Heritage AA): 63.17
LDL ([2]; Heritage Cauc.): 93.19
Log (TG) ([2]; human, in vivo): 4.968
LDL ([2]; patients on the named drug): 88.32

CN1CCN(C2=Nc3cc(Cl)ccc3Nc3ccccc32)CC1 [clozapine]
treated patients with induced weight gain, diabetes and other metabolic derangements [4]: 50%
